Data taken from patent publication US11479802B2, “Assays for screening activity of modulators of members of the hydroxy steroid (17-beta) dehydrogenase (HSD17B) family” (Regeneron Pharmaceuticals, Inc., priority 2017, dated 2022).

Target: T1, human HSD17B13 (Homo sapiens, UniProt Q7Z5P4)
T1 sequence (Q7Z5P4 20-300): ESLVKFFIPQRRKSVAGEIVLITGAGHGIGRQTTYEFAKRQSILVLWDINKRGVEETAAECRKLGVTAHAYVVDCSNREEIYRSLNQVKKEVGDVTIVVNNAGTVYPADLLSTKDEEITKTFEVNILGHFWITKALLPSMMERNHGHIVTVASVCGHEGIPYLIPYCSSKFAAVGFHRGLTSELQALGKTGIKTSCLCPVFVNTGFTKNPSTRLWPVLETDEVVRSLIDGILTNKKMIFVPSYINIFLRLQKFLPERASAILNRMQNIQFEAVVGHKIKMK
Test: Substrate screening of steroid and bioactive lipid libraries against purified recombinant HSD17B13 (NADH-linked luciferase assay)
Assay type: biochemical
Details: for HSD17B13 Enzymatic Activity Relative Light Units: 500 μM NAD+, 100 ng enzyme, 3 hours at 23° C.; for HSD17B13 Enzymatic Activity Percent Estradiol Control: normalized to 50 μM estradiol after subtraction of 5% DMSO
Outline: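 Substrates (bioactive lipids 5 μM, steroids 50 μM; 5% DMSO) tested with 500 μM NAD+ and 100 ng recombinant human HSD17B13 in 0.2 M Tris-HCl pH 7.5, 3 h, 23° C. Luminescent NADH detection followed 1 h later; RLU normalized to estradiol (50 μM, 100%) and DMSO (0%) controls.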

[1] = Bioactive Lipid Library, 5 μM bioactive lipid (Estradiol Control 50 μM)
[2] = Bioactive Lipid Library, 5 μM bioactive lipid

Row | SMILES | HSD17B13 Enzymatic Activity Relative Light Units [1] [RLU] | HSD17B13 Enzymatic Activity Percent Estradiol Control [2] [%] | HSD17B13 Enzymatic Activity Relative Light Units (Steroid Library, 50 μM steroid) [RLU] | HSD17B13 Enzymatic Activity Percent Estradiol Control (Steroid Library, 50 μM steroid) [%]
1 | CC(C)OC(=O)CCC/C=C\C[C@@H]1[C@@H](/C=C/[C@@H](O)COc2cccc(C(F)(F)F)c2)[C@H](O)C[C@@H]1O [Fluprostenol isopropyl ester] | 467040 | 14.54 |  | 
2 | CCCCC/C=C\C\C=C/C=C/C=C/[C@@H](SC[C@H](NC(=O)CC[C@@H](N)C(=O)O)C(=O)O)[C@@H](O)CCCC(=O)O [Leukotriene F4] | 400400 | 9.27 |  | 
3 | CCCCC/C=C\C[C@H](O)/C=C/C=C\C/C=C\CCCC(=O)O (racemic) [(±)12-HETE] | 1324640 | 77.17 |  | 
4 | CC(=O)[C@H]1CC[C@H]2[C@@H]3CCC4=CC(=O)CC[C@]4(C)[C@H]3CC[C@]12C [Progesterone] |  |  | 175680 | 0.26
5 | CCCCCC1OC1C/C=C\C/C=C\C/C=C\CCCC(=O)O (racemic) [(±)14(15)-EET] | 305720 | 1.41 |  | 
6 | CCCCC/C=C\C/C=C\C/C=C\C=C\C1CCCC(=O)O1 (racemic) [(±)5-HETE lactone] | 348120 | 4.56 |  | 
7 | CCCCC[C@@H](O)/C=C/C=C\C/C=C\C/C=C\CCCC(=O)O [15(R)-HETE] | 701120 | 61.00 |  | 
8 | CCCCC[C@@H](/C=C/C=C\CCCCCCCCCC(=O)O)OO [15(S)-HpEDE] | 232720 | −4.02 |  | 
9 | CC(C)OC(=O)CCC/C=C\C[C@@H]1[C@@H](/C=C/[C@H](O)COc2cccc(C(F)(F)F)c2)[C@H](O)C[C@@H]1O [15(S)-Fluprostenol isopropyl ester] | 410960 | 10.11 |  | 
10 | C[C@]12CCC(=O)C[C@@H]1CC[C@@H]1[C@@H]2CC[C@]2(C)C(=O)CC[C@@H]12 [5a-androstanedione] |  |  | 181840 | 0.37
11 | CCCCC/C=C\C[C@@H](O)/C=C/C=C/C=C\[C@@H](O)CCCC(=O)N(C)C [Leukotriene B4 dimethyl amide] | 1910040 | 128.60 |  | 
12 | CCCCC[C@H](O)/C=C/C=C\C/C=C\CCCCCCC(=O)O [15(S)-HETrE] | 638320 | 26.14 |  | 
13 | O=C(O)CCC/C=C\C[C@H]1C(=O)C[C@@H](O)[C@@H]1/C=C/[C@@H](O)CCCCCO [20-hydroxy Prostaglandin E2] | 348240 | 5.15 |  | 
14 | C[C@]12Cc3c[nH]nc3C[C@@H]1CC[C@@H]1[C@@H]2CC[C@@]2(C)[C@H]1CC[C@]2(C)O [Stanazol] |  |  | 140840 | −0.35
15 | CCCCC/C=C\C/C=C\C/C=C\CC(O)C1CCCC(=O)O1 (racemic) [(±)5(6)-DiHET lactone] | 411120 | 6.50 |  | 
16 | CCCCC/C=C\C/C=C\C/C=C\C=C\[C@@H]1CCCC(=O)O1 [5(S)-HETE lactone] | 288400 | 0.12 |  | 
17 | CC(=O)OCC(=O)[C@@]1(O)CC[C@H]2[C@@H]3CCC4=CC(=O)CC[C@]4(C)[C@H]3C(=O)C[C@@]21C [Cortisone 21-acetate] |  |  | 200240 | 0.69
18 | C[C@]12C[C@H]3S[C@H]3C[C@@H]1CC[C@@H]1[C@@H]2CC[C@@]2(C)[C@H]1CC[C@@]2(C)O [(2a,3a,52,17b)-Androstan-17ol,2,3-epithio-17-methyl] |  |  | 100160 | −1.06
